# Read-outs that look alike come from different tables or passages of the source.
# How the values were obtained:
# [1] = test system: ventricular arrhythmias and death induced by the aconitine; assay: Aconitine intoxication test in the anesthetized rat; format: in vivo; conditions: i.v., vs untreated control
# From the text: (§1) Narcisse et al, Ann. Pharma. Fr., 37, 325-330 (1979), in the rat by the aconitine intoxication test of S. Witchitz et al, Coeur Med. Int., X(2), 281-286, (1971) and in the dog by the Harris test described in Circulation, 1, 1318, (1950) and by the test with adrenalin after experimental infarct of I. J. Steffe et al, J. Pharmacol. Exp. Ther., 214, 50-57 (1980).
# The anesthetized rat was intoxicated with an intravenous perfusion of aconitine while its electrocardiogram (ECG) was permanently recorded. During the perfusion at constant rate, the time necessary for the appearance of ventricular arrhythmias, successive extrasystoles (ESV), then stable ventricular tachycardium (TV) and the time within which the animal died were measured.
# The animals were divided into a control group (untreated) and treated groups (different doses). The results are expressed as a percentage of prolonging the time of appearance of the arrhythmias and of death of the treated groups in reaction to the control group.
# The results obtained are shown in Table 4 below and express the percentage of prolongation of the time of appearance of ventricular arrhythmias (ventricular extrasystoles and ventricular tachycardiums), and of the death, induced by the aconitine after an intravenous injection (I.V.) of several derivatives of the invention, in relation to a group of untreated control animals.
# anesthetized dog [2] = assay: Hemodynamic (cardiovascular) tolerance in the anesthetized dog; format: in vivo; conditions: i.v., vs control period
# Experimental: The hemodynamic tolerance of the derivatives of the invention was studied on dogs anesthesized with sodium pentobarbital. Endocavitary pressures were measured by means of catheters connected to Statham sensors while external recording of the electrocardiogram (E.C.G.) provided the measurement of cardiac frequency. Cardiac flow was measured by means of an electromagnetic sensor placed on the beginning of the aorta. The total peripheral resistances R were calculated from the value of the average aortic pressure (P) and the cardiac flow (Q) in accordance with the formula R=P/Q.
# After measurement of the parameters during a control period, the derivatives were injected intravenously in cumulative doses (30 minute interval between doses). The variations of the parameters in relation to the control period were measured within 20 and 30 minutes after each injection and are expressed as a percentage of variation in relation to the control.
# Table 2 summarizes the variations in hemodynamic parameters observed between the first and last injections.
# anesthetized dog [3] = assay: Electrophysiological studies on the anesthetized dog; format: in vivo; conditions: i.v., 2 evaluations
# Experimental: This study was carried out on dogs anesthetized with pentobarbital, with a closed thorax, by means of bipolar catheter-electrodes introduced into the cardiac cavities by transcutaneous venous and arterial means. The surface electrocardiogram (standard derivation D2) is recorded permanently.
# By means of a programmable JANSEN (R) stimulator, the following parameters may be measured:
# spontaneous cardiac frequency (FC);
# sinus recuperation time (SRTc) after auricular stimulation imposed at 160 b/mn for 1 mn;
# intracardiac conduction times (auriculohisien at a constant frequency, His-Purkinje, intraventricular);
# the effective and functional refractory periods measured at an imposed constant frequency, with the extrastimulus method.
# During the electrophysiological study, the derivatives were injected intravenously for 2 minutes for each dose and at 30 minute intervals between each dose. The doses are expressed as a cumulative value and as a base term.
# The measurement of the various parameters was carried out before the injection of the first dose (control period) and from 10 to 28 minutes after the injection of each dose of the substance. The results are expressed as a percentage of variation in relation to the control period.
# [4] = test system: anoxic ventricular fibrillation; assay: Lawson test (cardiac antifibrillatory power, chloroform); format: in vivo; conditions: ip; mouse, intraperitoneal, 10 minutes before chloroform
# Experimental: The Lawson test is a test for the study of the cardiac antifibrillatory power of the derivatives. The mice (20 per group) received an intraperitoneal injection of the derivative 10 minutes before being placed in a chloroform-saturated atmosphere. Upon respiratory arrest, the thorax was opened (5 to 10 seconds) and whether or not the heart was in ventricular fibrillation was checked. The efficacy dose 50 (ED 50) of the derivative being studied is the dose which protects half the mice against anoxic ventricular fibrillation.
# [5] = Acute toxicity in the mouse (LD 50, Litchfield and Wilcoxon); conditions: in vivo
# Experimental: The acute toxicity of the derivatives of the invention were studied by intraperitoneal administration (I.P.) on the mouse (10 animals, 5 males and 5 females per dose) and calculation of the lethal dose 50 (LD 50) in accordance with the method of Litchfield and Wilcoxon (J. Pharmacol. 96, 99-113 (1949)).
# In certain cases (derivatives of Examples 4, 6, 9), the LD 50 was also calculated after oral administration (P.O.) of the derivatives.
# [6] = test system: ventricular arrhythmias with adrenalin; assay: Test with adrenalin after experimental infarct; format: in vivo, dog
# From the text: as §1
# 2 to 5 days after an experimental infarct, the effects of discontinuous injections (in intravenous bolus of […] of basic adrenalin) of adrenalin were observed on the electrocardioagram of the conscious dog.
# During a first phase (control) of the experiment, three successive injections of adrenalin were given and, in the 2 minutes following each injection, the frequency of the ventricular extrasystoles was measured. In this manner, by increasing the dose of adrenalin as necessary, it was possible to determine the dose which caused the appearance of ventricular extrasystoles at a higher frequency than or equal to half the total number of ventricular systoles.
# After injection of the derivative to be tested, the same dose of adrenalin was reinjected after 5 minutes, then 30 minutes, 60 minutes, 90 minutes, etc., and its effects were compared to those observed during the control period.
# The results therein are expressed as a percentage of extrasystoles (on the total number of systoles) measured during the 2 minutes following the injection of adrenalin before and after the administration of the derivative to be tested.
# [7] = Lawson test (cardiac antifibrillatory power, chloroform); conditions: in vivo, ip; mouse, intraperitoneal; read-out: Maximum Dose Tolerated
# ventricular arrhythmias = assay: Harris test (ventricular arrhythmias after experimental infarct); format: in vivo, dog
# From the text: as §1
# The ligature of the anterior interventricular artery in the anesthetized dog causes the appearance of an experimental infarct of the myocardium followed by considerable ventricular arrhythmias.
# The dogs were studied 24 to 48 hours after the intervention. The electrocardiogram (ECG) was then recorded permanently, the conscious dog being at rest in an isolated laboratory. After a period of 3 hours of ECG recording, allowing for the measurement of the cardiac frequency of the dog the frequency of ventricular extrasystoles (ESV)--pre-treatment control period--the derivative to be studied was injected intravenously for 1 minute. Continuous recording of the ECG enabled, in the hours following the injection, measurement of the frequency of the ESV/mn for successive periods from 30 to 60 min. The number of ESV per minute measured for 3 hours during the control period varied from 66 to 172/min with an average of 111/min. […] The length of this antiarrhythmic effect observed varied depending on the derivatives from 1 hour to more than 5 hours. For example, the percentage decrease of the ESV/min in the case of the derivative of Example 11 (cumulative dose 14 mg/kg) was 96% (0 to 1/2 hour), 50% (1/2 to 1 hour) and 68% (1 to 2 hour). The corresponding values for the derivative of Example 4 (3 mg/kg) were 44%, 55% and 45%, respectively.
# [8] = ip, intraperitoneal, read-out: LD 50 I.P.
# [9] = 1 mg/kg, control period 48% of ESV
# [10] = cumulative doses 0.3 to 10 mg/kg
# [11] = 14.3 mg/kg, control period 74% of ESV
compound,measurement,setting,value
"CC1(NC(=O)Cc2ccccc2)C2CC3CC1CN(C2)C3(C)C (centres unmarked) [Example 9, N-phenylacetyl-4-amino-4,8,8-trimethyl-1-azaadamantane]",Prolongation of time of appearance of ventricular extrasystoles (ESV),[1]; 10 mg/kg,+31%
same,Prolongation of time of appearance of ventricular tachycardium (TV),[1]; 10 mg/kg,+79%
same,Prolongation of time to death,[1]; 10 mg/kg,+44%
same,Prolongation of time of appearance of ventricular extrasystoles (ESV),[1]; 20 mg/kg,+100%
same,Prolongation of time of appearance of ventricular tachycardium (TV),[1]; 20 mg/kg,+79%
same,Prolongation of time to death,[1]; 20 mg/kg,+84%
same,Prolongation of time of appearance of ventricular extrasystoles (ESV),[1]; 40 mg/kg,+171%
same,Prolongation of time of appearance of ventricular tachycardium (TV),[1]; 40 mg/kg,+147%
same,Prolongation of time to death,[1]; 40 mg/kg,+88%
same,"Cardiac Flow, percentage of variation",anesthetized dog [2]; cumulative doses 1 to 10 mg/kg,0 to -30%
same,"Cardiac Frequency, percentage of variation",anesthetized dog [2]; cumulative doses 1 to 10 mg/kg,0 to -12%
same,"Total Peripheral Resistances, percentage of variation",anesthetized dog [2]; cumulative doses 1 to 10 mg/kg,-5 to +15%
same,"dp/dt/p Left Ventricular, percentage of variation",anesthetized dog [2]; cumulative doses 1 to 10 mg/kg,0 to -33%
same,"F.C. (cardiac frequency), variation",anesthetized dog [3]; doses 1 to 19 mg/kg,0%
same,"HV (time of His-Purkinje conduction), variation",anesthetized dog [3]; doses 1 to 19 mg/kg,+18 to +100%
same,"PREA (effective auricular refractory period), variation",anesthetized dog [3]; doses 1 to 19 mg/kg,+6 to +45%
same,"PREV (effective ventricular refractory period), variation",anesthetized dog [3]; doses 1 to 19 mg/kg,+2 to +15%
same,"QRS (time of intraventricular conduction), variation",anesthetized dog [3]; doses 1 to 19 mg/kg,0 to +23%
same,"St-H (time of auriculohisien conduction), variation",anesthetized dog [3]; doses 1 to 19 mg/kg,0 to +30%
same,ED50,[4],90 mg/kg
same,LD50,[5]; [8],430 mg/kg
same,LD50,"[5]; oral, read-out: LD 50 P.O.",2400 mg/kg
same,ESV Percentage at 5 min,[6]; [9],11%
same,ESV Percentage at 30 min,[6]; [9],27%
same,ESV Percentage at 60 min,[6]; [9],45%
same,MTD,[7],200 mg/kg
"CC1(NC(=O)CCc2ccccc2)C2CC3CC1CN(C2)C3(C)C (centres unmarked) [Example 4, N-(3-phenylpropionyl)-4-amino-4,8,8-trimethyl-1-azaadamantane]",Prolongation of time of appearance of ventricular extrasystoles (ESV),[1]; 5 mg/kg,+37%
same,Prolongation of time of appearance of ventricular tachycardium (TV),[1]; 5 mg/kg,+50%
same,Prolongation of time to death,[1]; 5 mg/kg,+25%
same,Prolongation of time of appearance of ventricular extrasystoles (ESV),[1]; 10 mg/kg,+60%
same,Prolongation of time of appearance of ventricular tachycardium (TV),[1]; 10 mg/kg,+86%
same,Prolongation of time to death,[1]; 10 mg/kg,+39%
same,Prolongation of time of appearance of ventricular extrasystoles (ESV),[1]; 20 mg/kg,+103%
same,Prolongation of time of appearance of ventricular tachycardium (TV),[1]; 20 mg/kg,+89%
same,Prolongation of time to death,[1]; 20 mg/kg,+65%
same,"Cardiac Flow, percentage of variation",anesthetized dog [2]; [10],-7 to -23%
same,"Cardiac Frequency, percentage of variation",anesthetized dog [2]; [10],-7%
same,"Systolic Arterial Pressure, percentage of variation",anesthetized dog [2]; [10],-7 to -28%
same,"Total Peripheral Resistances, percentage of variation",anesthetized dog [2]; [10],0 to -13%
same,"dp/dt/p Left Ventricular, percentage of variation",anesthetized dog [2]; [10],0 to -40%
same,"F.C. (cardiac frequency), variation",anesthetized dog [3]; doses 0.3 to 14.3 mg/kg,0%
same,"HV (time of His-Purkinje conduction), variation",anesthetized dog [3]; doses 0.3 to 14.3 mg/kg,0 to +80%
same,"PREA (effective auricular refractory period), variation",anesthetized dog [3]; doses 0.3 to 14.3 mg/kg,+10 to +35%
same,"PREV (effective ventricular refractory period), variation",anesthetized dog [3]; doses 0.3 to 14.3 mg/kg,0 to +10%
same,"QRS (time of intraventricular conduction), variation",anesthetized dog [3]; doses 0.3 to 14.3 mg/kg,0 to +15%
same,"St-H (time of auriculohisien conduction), variation",anesthetized dog [3]; doses 0.3 to 14.3 mg/kg,+7 to +10%
same,ED50,[4],72 mg/kg
same,LD50,[5]; [8],375 mg/kg
same,LD50,"[5]; oral, read-out: LD 50 P.O.",2400 mg/kg
same,ESV Percentage at 5 min,[6]; [11],36%
same,ESV Percentage at 30 min,[6]; [11],59%
same,ESV Percentage at 60 min,[6]; [11],60%
same,MTD,[7],200 mg/kg
same,Percentage decrease of the ESV/min,"ventricular arrhythmias; 3 mg/kg i.v., 0 to 1/2 hour",44%
same,Percentage decrease of the ESV/min,"ventricular arrhythmias; 3 mg/kg i.v., 1/2 to 1 hour",55%
same,Percentage decrease of the ESV/min,"ventricular arrhythmias; 3 mg/kg i.v., 1 to 2 hour",45%
"CC1(NC(=O)CCCc2ccccc2)C2CC3CC1CN(C2)C3(C)C (centres unmarked) [Example 11, N-(4-phenylbutyryl)-4-amino-4,8,8-trimethyl-1-azaadamantane]",Percentage decrease of the ESV/min,"ventricular arrhythmias; cumulative dose 14 mg/kg i.v., 0 to 1/2 hour",96%
same,Percentage decrease of the ESV/min,"ventricular arrhythmias; cumulative dose 14 mg/kg i.v., 1/2 to 1 hour",50%
same,Percentage decrease of the ESV/min,"ventricular arrhythmias; cumulative dose 14 mg/kg i.v., 1 to 2 hour",68%

# From US4578382A, “4-acylamino-1-azaadamantanes, and compositions for use thereof in medicine” (Etablissements Nativelle S.A., priority 1981, dated 1986)
